Measured values: ChEMBL document CHEMBL3352777, “Substituted thieno[2,3-b]thiophenes and related congeners: Synthesis, β-glucuronidase inhibition activity, crystal structure, and POM analyses” (Bioorg Med Chem, 2014)

Key:
[1] = target: Carbonic anhydrase (Homo sapiens) (UniProt P00918+P43166+P00915+P07451+P23280+O43570+Q9ULX7+Q16790+P22748+Q8N1Q1+Q9Y2D0+P35218); test: Inhibition of carbonic anhydrase (unknown origin) at 500 uM; type: protein assay
[2] = cells; conditions: Homo sapiens, PC-3, 48 h
Description: Cytotoxic activity against human PC3 cells after 48 hrs by MTT assay

[3] = Inhibition of buttermilk xanthine oxidase (unknown origin) incubated for 10 mins by spectrophotometry
[4] = Inhibition of alpha-chymotrypsin (unknown origin) using N-succinyl-L-phenylalanine-p-nitroanilide substrate; parameters: species or system Homo sapiens
[5] = species on record: Homo sapiens; test: Inhibition of alpha-chymotrypsin (unknown origin) using N-succinyl-L-phenylalanine-p-nitroanilide substrate at 500 uM
[6] = target: Carbonic anhydrase; test: Inhibition of carbonic anhydrase (unknown origin); type: protein assay, Homo sapiens
[7] = Inhibition of buttermilk xanthine oxidase (unknown origin) at 500 uM incubated for 10 mins by spectrophotometry
[8] = target: T1, Beta-glucuronidase (Homo sapiens) (UniProt P08236); test: Inhibition of beta-glucuronidase (unknown origin) at 500 uM using p-nitrophenyl-beta-D-glucuronide substrate incubated for 30 mins by spectrophotometry
T1 sequence (whole entry): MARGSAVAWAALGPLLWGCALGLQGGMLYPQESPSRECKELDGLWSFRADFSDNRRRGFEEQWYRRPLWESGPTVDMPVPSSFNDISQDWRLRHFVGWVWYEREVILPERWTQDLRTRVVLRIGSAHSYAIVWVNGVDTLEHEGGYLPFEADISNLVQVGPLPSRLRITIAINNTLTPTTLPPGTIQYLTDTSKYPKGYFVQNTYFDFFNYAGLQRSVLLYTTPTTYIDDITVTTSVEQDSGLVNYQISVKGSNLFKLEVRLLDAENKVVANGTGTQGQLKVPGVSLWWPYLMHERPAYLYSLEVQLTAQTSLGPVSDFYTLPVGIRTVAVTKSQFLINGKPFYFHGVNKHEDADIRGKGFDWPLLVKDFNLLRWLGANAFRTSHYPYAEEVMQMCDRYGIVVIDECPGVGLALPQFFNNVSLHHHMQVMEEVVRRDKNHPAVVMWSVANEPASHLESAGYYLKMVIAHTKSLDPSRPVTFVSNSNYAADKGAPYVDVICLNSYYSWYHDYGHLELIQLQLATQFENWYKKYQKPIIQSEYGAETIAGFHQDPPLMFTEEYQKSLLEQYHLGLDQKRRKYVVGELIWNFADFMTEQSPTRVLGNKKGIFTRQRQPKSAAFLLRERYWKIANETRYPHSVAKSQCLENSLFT

SMILES | inhibition [1] [%] | IC50 [2] [µM] | inhibition [5] [%] | other results
CC(C)C[C@H](NC(=O)[C@@H](NC(=O)N[C@@H](Cc1ccccc1)C(=O)O)C1CCNC(=N)N1)C(=O)N[C@H](C=O)Cc1ccccc1 (stereo partly drawn) [CHYMOSTATIN] |  |  |  | IC50 [4]: 5.7 µM
Cc1c(-c2ccc(C#N)c(=O)[nH]2)sc2sc(-c3ccc(C#N)c(=O)[nH]3)c(-c3ccccc3)c12 |  |  |  | IC50 [6]: 270.13 µM; inhibition [7]: < 50%
CC(=O)c1ccc(-c2sc3sc(-c4ccc(C(C)=O)c(C)n4)c(-c4ccccc4)c3c2C)nc1C | < 50 | > 30 |  | 
CCOC(=O)c1nn(-c2ccccc2)cc1C(=O)c1sc2sc(C(=O)c3cn(-c4ccccc4)nc3C(=O)OCC)c(-c3ccccc3)c2c1C |  | > 30 | < 50 | inhibition [8]: < 50%
Cc1c(C(=O)/C=C/NO)sc2sc(C(=O)/C=C/NO)c(-c3ccccc3)c12 |  | > 30 |  | 
Cc1c(C(=O)/C=C/N(C)C)sc2sc(C(=O)c3ccc(-c4sc5sc(C(=O)/C=C/N(C)C)c(-c6ccccc6)c5c4C)nc3)c(-c3ccccc3)c12 | < 50 | > 30 | < 50 | 
Oc1ncnc2[nH]ncc12 [ALLOPURINOL] |  |  |  | IC50 [3]: 2 µM
CC(=C(C#N)C#N)c1sc2sc(C(C)=C(C#N)C#N)c(-c3ccccc3)c2c1C |  | > 30 | < 50 | IC50 [6]: 441.72 µM; inhibition [7]: < 50%

Continued, in another order:

inhibition [1] [%] | IC50 [2] [µM] | inhibition [5] [%] | SMILES | other results
< 50 | > 30 |  | Cc1c(/C(=C/C=C(\C#N)C(N)=O)N(C)C)sc2sc(/C(=C/C=C(\C#N)C(N)=O)N(C)C)c(-c3ccccc3)c12 | IC50 [3]: 43.1 µM
< 50 | > 30 | < 50 | Cc1c(C(=O)c2cc(C(=O)O)c(=O)[nH]n2)sc2sc(C(=O)c3cc(C(=O)O)c(=O)[nH]n3)c(-c3ccccc3)c12 | IC50 [3]: 121 µM
< 50 | > 30 | < 50 | Cc1c(C(=O)/C=C/N(C)C)sc2sc(C(=O)/C=C/N(C)C)c(-c3ccccc3)c12 | inhibition [8]: < 50%; inhibition [7]: < 50%
< 50 | > 30 | < 50 | Cc1c(-c2ccc(C(=O)O)c(=O)[nH]2)sc2sc(-c3ccc(C(=O)O)c(=O)[nH]3)c(-c3ccccc3)c12 | inhibition [7]: < 50%
< 50 | > 30 | < 50 | CCOC(/C=C/C(=O)c1sc2sc(C(=O)/C=C/C(OCC)(OCC)OCC)c(-c3ccccc3)c2c1C)(OCC)OCC | 
 | 0.912 |  | COc1cccc2c1C(=O)c1c(O)c3c(c(O)c1C2=O)C[C@@](O)(C(=O)CO)C[C@@H]3O[C@H]1C[C@H](N)[C@H](O)[C@H](C)O1 [DOXORUBICIN] | 
 | > 30 |  | Cc1c(C(/C=C/N(C)C)=C(C#N)C#N)sc2sc(C(/C=C/N(C)C)=C(C#N)C#N)c(-c3ccccc3)c12 | IC50 [4]: 202 µM
< 50 | > 30 | < 50 | CCOc1nc(-c2sc3sc(-c4ccc(C#N)c(OCC)n4)c(-c4ccccc4)c3c2C)ccc1C#N | IC50 [3]: 14.4 µM
 | 2.61 |  | Cc1c(C(=O)c2cc(C#N)c(=N)n(-c3ccccc3)n2)sc2sc(C(=O)c3cc(C#N)c(=N)n(-c4ccccc4)n3)c(-c3ccccc3)c12 | 
< 50 | 13.8 | < 50 | Cc1c(C(=O)/C(C=O)=N/Nc2ccccc2)sc2sc(C(=O)/C(C=O)=N/Nc3ccccc3)c(-c3ccccc3)c12 | inhibition [7]: < 50%
